Experimental data from US20110195924A1, “Methods of Inhibiting the Interaction Between S100P and the Receptor for Advanced Glycation End-Products” (priority 2008, published 2011).

Key:
PC3 prostate cells [1] = assay: PC3 prostate cell proliferation; format: cell-based; settings: different concentrations; 24, 48, 72 hours
Method: PC3 prostate cells were cultured for up to three days in the presence of different concentrations of cromolyn, and cell proliferation was analyzed at 24, 48, and 72 hours. *, P<0.05.

PC3 prostate cells [2] = assay: PC3 prostate cell viability with taxol; format: cell-based; settings: taxol 100 nM, cromolyn 10 μM, 48 hours
Method: PC3 prostate cells were plated and treated with taxol (100 nM) either in the presence or absence of cromolyn (10 μM) for 48 hours. Cell viability was analyzed after 48 hours. *, P<0.05.

S100P = target: T1, S100P (Homo sapiens, UniProt P25815); assay: S100P binding to cromolyn using affinity chromatography; settings: cromolyn coupled to AF-TOYOPEARL; control column did not retain
T1 construct: full-length human S100P cDNA (NM_005980) was cloned into the pTrcHis2 vector; made in house; host or cells: bacteria (pTrcHis2 vector, IPTG induction)
T1 sequence (P25815 1-95): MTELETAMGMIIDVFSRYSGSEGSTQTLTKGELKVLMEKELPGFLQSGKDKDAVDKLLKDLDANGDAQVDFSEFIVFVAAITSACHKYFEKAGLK
Method: Cromolyn was coupled with the amino group of AF-amino TOYOPEARL to generate a cromolyn affinity column. A negative control column was prepared by blocking the amino group. Purified S100P was added to both columns, which were then washed extensively. Protein was eluted from the columns using EGTA and subjected to sodium dodecylsulfate polyacrylamide gel electrophoresis and staining with Commassie blue. Lane 1 of the gel is the molecular weight marker; lane 2 is the eluate from the control column; and lane 3 is the eluate from the cromolyn column (arrow, S100P). The gel shown is one of three independent experiments.
Cromolyn was coupled to AF-TOYOPEARL resin as described in Shishibori, et al., Three distinct anti-allergic drugs, amlexanox, cromolyn and tranilast, bind to S100A12 and S100A13 of the S100 protein family; Biochem. J. 1999 Mar. 15;338 (Pt 3):583-9. Briefly, 0.1 grams of cromolyn was dissolved in 1 mL of N,N-dimethylformamide and added to 7 mL (5 grams wet mass) AF-TOYOPEARL. Next, 0.5 grams of N-ethyl-N-(3-dimethylaminopropyl)carbodiimide hydrochloride, suspended in 10 mL of N,N-dimethylformamide, was added to the cromolyn+AF-TOYOPEARL slurry. The pH was adjusted to 5.0, and the slurry was incubated with gentle shaking for 48 hours at 25° C. As a negative control, a column was prepared by blocking the amino group of AF-TOYOPEARL with sodium acetate and acetic anhydride. […]

SW480 cells = assay: SW480 colon cancer cell invasion (matrigel, transwell); format: cell-based; settings: cromolyn 10 μM and 100 μM, 24 hours
Method: SW480 cells were plated on top of a layer of matrigel in a Boyden type chamber (transwell). Media containing 5% FBS was placed in the lower well and the cells were allowed to invade the matrigel layer for 24 hours in the presence of different concentrations of cromolyn.

S100P and RAGE = target: T2, S100P and RAGE (Homo sapiens, UniProt P25815); assay: Co-immunoprecipitation of S100P and RAGE from BxPC-3 cell lysates; format: binding; settings: cromolyn 100 μM
T2 construct: endogenous in cells; host or cells: BxPC-3 cell lysate
T2 sequence (P25815 1-95): T1 sequence (P25815 1-95)
Method: Receptor for advanced glycation end products (RAGE) was identified in the immunoprecipitates by immunoblotting with a goat polyclonal anti-RAGE antibody and anti-S100P as an internal control. In the lower panel, one representative blot and densitometric analysis (means and 95% confidence intervals [CIs]) of three independent experiments is shown. *P<0.001, versus IP α-S100P without cromolyn.
For co-immunoprecipitation experiments, BxPC-3 cell lysates were incubated in the absence or presence of cromolyn (100 μM) at 4° C. overnight. S100P was immunoprecipitated using a mouse monoclonal anti-S100P antibody (Transduction Laboratories, San Diego, Calif.) for 6 hours at 4° C. and IgG-immobilized beads (Pierce Biotechnology, Inc. Rockford, Ill.). Antibody-associated proteins were electrophoresed on 10% polyacrylamide gels and electrophoretically transferred to nitrocellulose membranes. Membranes were blocked in PBS/5% milk overnight at 4° C. RAGE was detected using a goat polyclonal anti-RAGE antibody (1:200, Santa Cruz, Santa Cruz, Calif.), and S100P was detected using a goat polyclonal anti-S100P antibody (1:50, R & D systems, Minneapolis, Minn.) by immunoblotting as described in Arumugam, et al., S100P stimulates cell proliferation and survival via receptor for activated glycation end products (RAGE); J. Biol. Chem. 2004 Feb. 13; 279(7):5059-65. Briefly, membranes were incubated in primary antibody for 1 hour at room temperature followed by incubation with horseradish peroxidase-labeled secondary antibody for 30 minutes at room temperature. After a thorough wash in TBS-T buffer (1M Tris-HCL pH 8.3, 3M NaCl, 0.1% Tween-20), antibody-protein complexes were detected by using a chemiluminescent substrate (GE Healthcare Bio-Sciences Corp., Piscataway, N.J.). The intensity of the band was estimated (as density units) using densitometry (GS-250 Molecular Imaging System, Bio-Rad Laboratories, Richmond, Calif.). The experiment was repeated three times. […]

NFκB activity = assay: S100P stimulated NFκB luciferase reporter in MPanc-96 cells; format: cell-based, Human; settings: S100P 100 nM, compound 1 μM, 5 hours
Method: MPanc-96 pancreatic cancer cell lines stably expressing an NFκB luciferase reporter were examined for the effects of S100P, cromolyn and C5. Cells were plated at 5.0×10^3 cells/well, treated for 5 hours with 100 nM of S100P, with or without cromolyn and C5 (1 μM), and activity of a luciferase gene driven by the NFkB promoter was analyzed. P=0.05 C5 versus cromolyn. Two-tailed two-sample (unpaired) Student's t-tests were used to determine P values.

retention of S100P on cromolyn affinity column (S100P): retained S100P
co-immunoprecipitation of S100P and RAGE, difference versus control (S100P and RAGE): 25640 density units
total amount of S100P immunoprecipitated (S100P and RAGE): no effect
co-immunoprecipitation of S100P and RAGE, mean (S100P and RAGE; control mean 34040): 8410 density units
SMILES: O=C(O)c1cc(=O)c2c(OCC(O)COc3cccc4oc(C(=O)O)cc(=O)c34)cccc2o1 [cromolyn, disodium 1,3-bis[(2′-carboxylatochromon-5′-yl)oxy]-2-hydroxypropane]
growth of PC3 cells (PC3 prostate cells [1]): reduced growth
cell killing effect of taxol on prostate cancer cells (PC3 prostate cells [2]): increased the cell killing effect of taxol
invasiveness of SW480 cells (SW480 cells): reduced the invasiveness
NFκB activity in pancreatic cancer cells in vitro (NFκB activity): inhibit
